Results as given in US20200390729A1, “OPHTHALMIC TOPICAL COMPOSITION COMPRISING DOBESILIC ACID FOR TREATING DISEASES OF THE POSTERIOR SEGMENT OF THE EYE” (LABORATORIOS SALVAT, S.A., priority 2017, published 2020).

Test system: TNF-α mRNA
Experiment: Anti-inflammatory activity: relative TNF-α mRNA in retinas, streptozotocin diabetic retinopathy model
Type: in vivo, SD male rats
Settings: diabetic rats, CDO 10 mg/ml topical 10 μl/eye TID 28 days
Method: Diabetes was induced in SD male rats by single intraperitoneal injection of streptozotocin (STZ) at 60 mg/kg body weight in citrate buffer (pH 4.5). Seven days after STZ administration, blood glucose was measured and the level of 250 mg/dl was considered the threshold value to consider diabetes induction. Ophthalmic treatment with CDO at 10 mg/ml (topical instillation of 10 μl/eye) was initiated once hyperglycemia was confirmed and continued for 28 days three times a day (TID). Rats were randomly divided in 3 groups: I. Control (non-diabetic), II. Diabetic rats with no treatment and III. Diabetic rats with CDO at 10 mg/ml. […]
RNA was isolated from each retina by using the commercial kit SV Total RNA Isolation System (Promega) and stored at −80° C. until use. Relative mRNA levels were quantified using a MX3000 (Stratagene) quantitative PCR system. […]
The qPCR system detects the fluorescence emitted by SYBR, its increase corresponds to exponential increase of the PCR product. The software calculates the threshold cycle (Ct), in which the fluorescence exceeds the background signal. Relative changes in gene expression were calculated using the ΔCt method. […] Relative expression of mRNA in the test samples were determined as fold increase compared with the control sample (non-diabetic).

O=S(=O)(O)c1cc(O)ccc1O [CDO, Calcium dobesilate monohydrate]
TNF-α mRNA expression of treated group vs control group (non-diabetic): slightly lower than the control group
